From publication PMC5403781, “Heterologous expression of a Streptomyces cyaneus laccase for biomass modification applications” (AMB Express, 2017)
Where two headings read alike, the source gives them in different places.

Experiments:
ScLac [1] = settings: read-out: ABTS; 100 mM MES pH 5.5, 30 °C; free enzyme, copper-loaded; substrate 5–95 µM
ScLac [2] = tested on: T1, ScLac; test: spectrophotometric oxidation, […] nm; format: biochemical, Streptomyces cyaneus; settings: 100 mM MES pH 5.5, 30 °C; free enzyme, copper-loaded; substrate 5–95 µM; read-out: DMP
T1 construct: C-terminal His6 tag (pET-22b(+), NdeI/XhoI), expressed in E. coli BL21 (DE3) Star; primers encode N-terminus METDIIER and C-terminal HGAGHTG before the LE-His6 tag; copper-loaded with CuSO4 after purification

ScLac [3] = tested on: T1, ScLac; test: spectrophotometric oxidation, […] nm; format: biochemical, Streptomyces cyaneus; settings: 100 mM MES pH 5.5, 30 °C; free enzyme, copper-loaded; substrate 5–95 µM; read-out: Guaiacol

SMILES: CCn1c(=NN=c2sc3cc(S(=O)(=O)O)ccc3n2CC)sc2cc(S(=O)(=O)O)ccc21 [ABTS]
- Km (ScLac [1]): 33.5 ± 27.9 µM

SMILES: COc1cccc(OC)c1O [DMP, 2,6-dimethoxyphenol]
- Km (ScLac [2]): 202 ± 34.8 µM

SMILES: COc1ccccc1O [guaiacol]
- Km (ScLac [3]): 5.4 ± 1.9 µM
